Experimental data taken from ChEMBL document CHEMBL1795292, “Discovery of molecules for the treatment of neuropathic pain: synthesis, antiallodynic and antihyperalgesic activities of 5-(4-nitrophenyl)furoic-2-acid hydrazones” (2011).
Active and inactive are the calls of the source. No cut-off for these calls is given here.

How the values were obtained:
Rattus norvegicus [1] = experiment: Antiallodynic activity in Wistar albino rat chronic constriction injury-induced neuropathic pain model assessed as attenuation of mechanical allodynia measured as paw withdrawal latency at 100 mg/kg, ip; format: functional; settings: route intraperitoneal
Rattus norvegicus [2] = experiment: Antiallodynic activity in Wistar albino rat chronic constriction injury-induced neuropathic pain model assessed as reversal of spontaneous pain response after 0.5 hrs at 100 mg/kg, ip; format: functional, organism-based; set-up: dose 100 mg/kg
Rattus norvegicus [3] = experiment: Antihyperalgesic activity in Wistar albino rat chronic constriction injury-induced neuropathic pain model assessed as attenuation of mechanical pinkprick-induced hyperalgesia after 1.5 at 100 mg/kg, ip; format: functional, organism-based; set-up: dose 100 mg/kg
Rattus norvegicus [4] = experiment: Antiallodynic activity in Wistar albino rat chronic constriction injury-induced neuropathic pain model assessed as attenuation of cold allodynia measured as paw withdrawal duration at 100 mg/kg, ip; format: functional; settings: route intraperitoneal
Rattus norvegicus [5] = experiment: Antiallodynic activity in Wistar albino rat chronic constriction injury-induced neuropathic pain model assessed as reversal of spontaneous pain response measured as withdrawal duration at 100 mg/kg, ip; format: functional; settings: route intraperitoneal
Rattus norvegicus [6] = experiment: Antiallodynic activity in Wistar albino rat chronic constriction injury-induced neuropathic pain model assessed as attenuation of cold allodynia at 100 mg/kg, ip; format: functional, organism-based; set-up: dose 100 mg/kg
Rattus norvegicus [7] = experiment: Antiallodynic activity in Wistar albino rat chronic constriction injury-induced neuropathic pain model assessed as attenuation of mechanical allodynia at 100 mg/kg, ip; format: functional, organism-based; set-up: dose 100 mg/kg
Rattus norvegicus [8] = experiment: Antiallodynic activity in Wistar albino rat chronic constriction injury-induced neuropathic pain model assessed as reversal of spontaneous pain response at 100 mg/kg, ip; format: functional, organism-based; set-up: dose 100 mg/kg
Rattus norvegicus [9] = experiment: Antiallodynic activity in Wistar albino rat chronic constriction injury-induced neuropathic pain model assessed as attenuation of mechanical allodynia after 0.5 hrs at 100 mg/kg, ip; format: functional, organism-based; set-up: dose 100 mg/kg
Rattus norvegicus [10] = experiment: Antihyperalgesic activity in Wistar albino rat chronic constriction injury-induced neuropathic pain model assessed as attenuation of mechanical pinkprick-induced hyperalgesia up to 2.5 at 100 mg/kg, ip; format: functional, organism-based; set-up: dose 100 mg/kg
Rattus norvegicus [11] = experiment: Antiallodynic activity in Wistar albino rat chronic constriction injury-induced neuropathic pain model assessed as reversal of spontaneous pain response at 100 mg/kg, ip relative to gabapentin; format: functional; settings: route intraperitoneal
Rattus norvegicus [12] = experiment: Antiallodynic activity in Wistar albino rat chronic constriction injury-induced neuropathic pain model assessed as reversal of spontaneous pain response up to 2 hrs at 100 mg/kg, ip; format: functional, organism-based; set-up: dose 100 mg/kg
Rattus norvegicus [13] = experiment: Antihyperalgesic activity in Wistar albino rat chronic constriction injury-induced neuropathic pain model assessed as attenuation of mechanical pinkprick-induced hyperalgesia after 0.5 to 1.5 at 100 mg/kg, ip; format: functional, organism-based; set-up: dose 100 mg/kg
Rattus norvegicus [14] = experiment: Antiallodynic activity in Wistar albino rat chronic constriction injury-induced neuropathic pain model assessed as attenuation of cold allodynia after 0.5 to 1 hr at 100 mg/kg, ip; format: functional, organism-based; set-up: dose 100 mg/kg
Rattus norvegicus [15] = experiment: Antiallodynic activity in Wistar albino rat chronic constriction injury-induced neuropathic pain model assessed as reversal of spontaneous pain response up to 1 hr at 100 mg/kg, ip; format: functional, organism-based; set-up: dose 100 mg/kg
Rattus norvegicus [16] = experiment: Antihyperalgesic activity in Wistar albino rat chronic constriction injury-induced neuropathic pain model assessed as attenuation of mechanical pinkprick-induced hyperalgesia after 0.5 to 1 at 100 mg/kg, ip; format: functional, organism-based; set-up: dose 100 mg/kg
Rattus norvegicus [17] = experiment: Antiallodynic activity in Wistar albino rat chronic constriction injury-induced neuropathic pain model assessed as attenuation of mechanical allodynia after 1.5 hrs at 100 mg/kg, ip; format: functional, organism-based; set-up: dose 100 mg/kg
Rattus norvegicus [18] = experiment: Antiallodynic activity in Wistar albino rat chronic constriction injury-induced neuropathic pain model assessed as reversal of spontaneous pain response after 1 hrs at 100 mg/kg, ip; format: functional, organism-based; set-up: dose 100 mg/kg
Rattus norvegicus [19] = experiment: Antiallodynic activity in Wistar albino rat chronic constriction injury-induced neuropathic pain model assessed as attenuation of cold allodynia at 100 mg/kg, ip relative to carbamazepine and lamotrigine; format: functional; settings: route intraperitoneal
Rattus norvegicus [20] = experiment: Antiallodynic activity in Wistar albino rat chronic constriction injury-induced neuropathic pain model assessed as attenuation of cold allodynia after 1 to 2.5 hrs at 100 mg/kg, ip; format: functional, organism-based; set-up: dose 100 mg/kg

Compound | Time (Rattus norvegicus [1]) [h] | Activity (Rattus norvegicus [2]) | Activity (Rattus norvegicus [3]) | Time (Rattus norvegicus [4]) [h] | Time (Rattus norvegicus [5]) [h] | Activity (Rattus norvegicus [6]) | Activity (Rattus norvegicus [7]) | Activity (Rattus norvegicus [8]) | Activity (Rattus norvegicus [9]) | also measured
O=C(N/N=C/c1ccccc1)c1ccc(-c2ccc([N+](=O)[O-])cc2)o1 | 2 | Active | inactive | 2.5 | 2.5 |  |  |  |  | 
O=C(N/N=C/c1ccc([N+](=O)[O-])o1)c1ccc(-c2ccc([N+](=O)[O-])cc2)o1 | 2.5 | Active | Active | 2.5 | 2.5 |  |  |  |  | 
C/C(=N\NC(=O)c1ccc(-c2ccc([N+](=O)[O-])cc2)o1)c1ccc(F)cc1 |  |  | inactive |  |  | inactive | inactive | inactive |  | 
C/C(=N\NC(=O)c1ccc(-c2ccc([N+](=O)[O-])cc2)o1)c1ccc(Br)cc1 | 2.5 |  | inactive | 2.5 |  |  |  | inactive | Active | 
Cc1ccc(/C=N/NC(=O)c2ccc(-c3ccc([N+](=O)[O-])cc3)o2)cc1 |  |  | Active |  |  | inactive | inactive | inactive |  | 
COc1ccc(/C=N/NC(=O)c2ccc(-c3ccc([N+](=O)[O-])cc3)o2)cc1 |  | Active |  | 2.5 | 2.5 |  | inactive |  |  | Activity (Rattus norvegicus [10]): Active; fold change (FC) (Rattus norvegicus [11]): 5
Nc1nnc(-c2cccc(Cl)c2Cl)c(N)n1 |  |  |  |  |  |  |  |  | Active | Activity (Rattus norvegicus [12]): Active
C/C(=N\NC(=O)c1ccc(-c2ccc([N+](=O)[O-])cc2)o1)c1ccc(C)cc1 | 2.5 |  |  |  |  | inactive |  | inactive | Active | Activity (Rattus norvegicus [13]): Active
NC(=O)N1c2ccccc2C=Cc2ccccc21 [CARBAMAZEPINE] | 2.5 |  |  |  |  |  |  |  |  | Activity (Rattus norvegicus [14]): Active; Activity (Rattus norvegicus [15]): Active
C/C(=N\NC(=O)c1ccc(-c2ccc([N+](=O)[O-])cc2)o1)c1ccccc1 | 2.5 | Active |  | 2.5 | 2.5 |  |  |  | Active | Activity (Rattus norvegicus [16]): Active
COc1cc(/C=N/NC(=O)c2ccc(-c3ccc([N+](=O)[O-])cc3)o2)ccc1O | 2.5 | Active | inactive |  | 2.5 | inactive |  |  |  | Activity (Rattus norvegicus [17]): Active
O=C(N/N=C/c1ccc(Br)cc1)c1ccc(-c2ccc([N+](=O)[O-])cc2)o1 |  |  |  | 2.5 | 2.5 |  | inactive |  |  | Activity (Rattus norvegicus [18]): Active; Activity (Rattus norvegicus [10]): Active; fold change (FC) (Rattus norvegicus [19]): 6
NCC1(CC(=O)O)CCCCC1 [GABAPENTIN] | 2.5 |  |  |  | 1 |  |  |  |  | Activity (Rattus norvegicus [20]): Active
